Usually pIC50 stands for the negative decadic logarithm of the IC50, by convention in mol/L. As a reminder, the IC50 is the concentration at which inhibition is half-maximal.

Here are results for 101 compounds from PubChem BioAssay AID493003 (Sanford-Burnham Center for Chemical Genomics, 2010).

Molecules are shown by their SMILES. pIC50: −log10 of the molar value. Activity calls are given as the source filed them. The rule behind the calls is not given here. A value given as a limit tells only on which side of the number the result lay.

The test system of the assay is S. cerevisiae tim10-1 mutant growth, luminescence. In words: tim10-1 yeast growth inhibition potency – luminescence, S. cerevisiae, uHTS hits, dose response (AID 493003).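 Note: yeast growth measured after about 22 hours at 25 °C.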

For the compound `CCNC(=S)N/N=C/c1ccc(-c2ccccc2)o1`, the pIC50 is 4.46.

For `CC(C)(C)OC(=O)N[C@@H](Cc1ccccc1)c1nnc(S(=O)(=O)Cc2cccc(F)c2)o1`, the negative logarithm of the IC50 (pIC50) was 5.23. Consider `O=C(CCNc1ccc(Cc2ccncc2)cc1)c1cccc([N+](=O)[O-])c1`, for which the negative logarithm of the IC50 (pIC50) is 4.31. `CN(C1CCCCC1)S(=O)(=O)c1ccc(NC(=O)c2ccco2)cc1`: the negative-log IC50 (pIC50) was 4.42. For `Cc1ccc(/C(N)=N/OC(=O)N2CCOCC2)cc1`, the negative-log IC50 (pIC50) is 4.61.

For the compound `C=CCN1C(=O)C(O)(CC(=O)c2ccc(-n3cccc3)cc2)c2ccccc21` (stereo unspecified), the negative-log IC50 (pIC50) was 4.62.

Take `O=C1CN(C(=O)/C=C/c2cccc(Cl)c2)c2ccccc2N1`: the pIC50 is 4.52. The same measure, in the same setting: as for `CCSc1nc2ccccc2n1C(=O)/C=C\c1ccc(OC)c(OC)c1`, the figure is 4.98; as for `CC1(C)CC2CC(C)(CN2C(=S)NC(=O)c2ccccc2Cl)C1` (stereo unspecified), 4.22. On the same count and under the same terms, next, `COc1ccccc1C/C(N)=N/OC(=O)COc1ccccc1C`: 4.42.

In the case of `CCOc1ccc(-n2cc(-c3ccccc3)c3c(=O)[nH]cnc32)cc1`, the pIC50 is 4.83. For the compound `CCOc1ccc(NC(=O)c2cccc3c2C(=O)N(Cc2cccnc2)C3)cc1`, the negative-log IC50 (pIC50) was 4.64.

Turning to `Cc1cccc(C(=O)O/N=C2\CCCc3ccccc32)c1`, the IC50 was > 100 µM (inactive). On to `Nc1ccccc1C(=O)/C=C/c1ccc2c(c1)OCO2`, for which the pIC50 is 4.83. `CC1=CC(C)(C)N2C(=O)C(=O)c3cc(OC(=O)c4ccco4)cc1c32`: the pIC50 is 4.48. On the same count and under the same terms, next, `Cc1ccc(OCCOc2cccc(Br)c2)c([N+](=O)[O-])n1`: 4.16; `COc1ccc(C(=O)O/N=C(\N)Cc2ccc(Cl)c(Cl)c2)cc1OC`: 6.12.

For the compound `S=c1[nH]nc(CSc2nc3ccccc3s2)n1C1CCCCC1`, the IC50 is > 100 µM (inactive). As to `Nc1nc(Nc2ccccc2)nc2ccccc12`, the pIC50 was 4.55. For `Cc1ccc(F)c([C@H]2[C@@H]3C=CCC[C@@]3(C)C(=O)N2Cc2ccccc2)c1`, the negative-log IC50 (pIC50) is 4.84.

For `NNc1nc(-c2ccccc2)c2cc(Br)ccc2n1`, the pIC50 was 5.00.

On to `Cc1csc(NC(=O)c2nc(-c3ccccc3)n(-c3ccccc3)n2)n1`, for which the negative logarithm of the IC50 (pIC50) is 4.50. Regarding `CCSc1nnc(NC(=O)c2nc(-c3ccccc3)n(-c3ccccc3)n2)s1`, the pIC50 is 4.59. On the same count and under the same terms, next, `COc1ccccc1N1CCN(CC(=O)Nc2ccc(Cl)c(C(F)(F)F)c2)CC1`: 4.23; `O=[N+]([O-])c1cc(/C=N/O)ccc1Oc1ccccc1Cl`: 4.47. With `O=c1c2ccccc2oc2ccc(C#CC3(O)CCCCC3)cc12`, the pIC50 is 4.63.

As to `CSc1ccccc1OCc1cc(C(=O)N2CCC(Oc3cccnc3)CC2)no1`, the pIC50 was 4.40.

As to `O=C1CC(N2CC=C(c3ccccc3)CC2)C(=O)N1c1ccc(F)cc1` (stereo unspecified), the pIC50 is 4.83.

With `O=C(Cc1ccccc1)N/N=C/c1ccc2cccc(O)c2n1`, the IC50 was > 100 µM (inactive). With `Cc1cccc(/C(N)=N/OC(=O)COc2ccc(Cl)cc2)c1`, the pIC50 is 4.32. Regarding `C=CC(=O)Oc1ccc(N2Cc3ccccc3C2=O)cc1`, the negative-log IC50 (pIC50) is 5.15. The same measure, in the same setting: as for `O=C(Nc1cccc(Cl)c1)N1N=CCC1c1ccccc1` (stereo unspecified), the figure is 4.53; as for `CCN1CCN(C(c2cccnc2)c2cc(Cl)c3cccnc3c2O)CC1` (stereo unspecified), 4.74. For the compound `O=C(/C=C/c1c[nH]c2ccccc12)c1ccccc1`, the negative logarithm of the IC50 (pIC50) was 4.11. For the compound `c1ccc(Nc2cccc(Nc3ccccc3)n2)cc1`, the pIC50 was 4.85. Take `CCc1nc(C)cn1S(=O)(=O)c1cc([N+](=O)[O-])ccc1Cl`: the pIC50 was 4.77.

For `CC1CCN(C(=S)c2cn(Cc3ccccc3F)c3ccccc23)CC1`, the negative-log IC50 (pIC50) was 4.45. The same measure, in the same setting: next, `Cc1cc(/C=C\c2ccc3cc(N(C)C)ccc3[n+]2C)c(C)n1-c1ccccc1`: 5.02. As for `O=S(=O)(/N=C(/Sc1ccccc1)c1ccccc1)c1ccccc1`, the pIC50 was 4.59. As for `CCCCCCC(=O)N(O)C1CC(=O)N(c2ccc(C)cc2)C1=O` (stereo unspecified), the negative-log IC50 (pIC50) was 4.91. `COc1ccc2sc(N(CCCN(C)C)C(=O)c3ccc(S(=O)(=O)N4CCCc5ccccc54)cc3)nc2c1`: the negative-log IC50 (pIC50) was 4.79. Still for that read-out and setting: as for `CCCCc1ccc(NC(=S)Nc2ccc(Nc3ccc(OC)cc3)cc2)cc1`, the figure is 4.89; as for `COC(=O)C(C(C)=O)C1=C/C(=N\S(=O)(=O)c2ccc(C)cc2)c2ccccc2C1=O` (stereo unspecified), 5.10; as for `N/C(=N\OC(=O)CCCOc1ccccc1)c1cccc([N+](=O)[O-])c1`, 4.27.

For the compound `O=S(=O)(Nc1cccc2cccnc12)c1ccc(S(=O)(=O)N2CCCC2)cc1`, the pIC50 is 4.39. With `COc1ccc(C(=O)O/N=C(\N)c2ccc(Br)cc2)cc1`, the pIC50 is 4.92.

Turning to `Cc1ccc(-c2csc(-c3c[nH]c4ccccc34)n2)cc1`, the negative-log IC50 (pIC50) is 4.60. With `CC(NC(=O)c1cccc(Cl)c1)C1CC2CCC1C2` (stereo unspecified), the pIC50 is 4.37.

With `Cc1cc(Br)c(Cl)cc1NC(=O)CN1C(=O)C2C3CC(c4ccccc4)C(C3)C2C1=O` (stereo unspecified), the pIC50 was 4.57. Turning to `CCN(CC)C1CC(=O)N(c2cccc(Cl)c2)C1=O` (stereo unspecified), the pIC50 was 5.03.

Turning to `Clc1cccc(C2Nc3cccc4cccc(c34)N2)c1Cl`, the pIC50 is 4.59. For the compound `CC(NC(=O)Nc1cccc([N+](=O)[O-])c1)(C(F)(F)F)C(F)(F)F`, the pIC50 is 4.24. Turning to `CCN1CCN(c2cc(N3CCc4ccccc4C3)c(F)cc2[N+](=O)[O-])CC1`, the negative-log IC50 (pIC50) was 4.54.

Turning to `C=CC(C)(C)c1c(O)c(CC=C(C)C)c(O)c2c(=O)c3ccc(O)c(O)c3oc12`, the pIC50 was 4.51. The same measure, in the same setting: next, `Cc1c(C(=O)N2CCc3ccccc3C2)sc2nc(-c3ccccc3)cn12`: 4.43; `Cc1ccc(C(=O)N2CCN(c3ccc(NC(=O)c4ccc(Br)o4)cc3)CC2)cc1`: 4.49. Still for that read-out and setting: as for `CCOC(=O)c1c(-c2ccc(C)o2)csc1NC(=S)NC(=O)N(C)C`, the figure is 4.71; as for `COc1ccc(-c2csc(CCn3nc(C)cc3C)n2)cc1`, 4.52; as for `COc1ccc(-c2oc3ncnc(NCCCN(C)C)c3c2-c2ccc(OC)cc2)cc1`, 4.18. As to `Cn1c(Cl)cnc1C1CC(=O)c2cc(Cl)ccc2O1` (stereo unspecified), the pIC50 is 5.08. In the case of `Cc1cc(C)cc(NC(=O)c2ccc(Cn3nc(C)c(Cl)c3C)o2)c1`, the pIC50 is 4.16. For `C/C(=N\O)c1cc(Cl)cc(Cl)c1O`, the pIC50 was 4.82. Take `CCCc1cc(NCC2CCCO2)n2c(nc3ccccc32)c1C#N` (stereo unspecified): the negative logarithm of the IC50 (pIC50) is 4.57. Still for that read-out and setting: next, `O=c1cc(-c2ccc(C3CCCCC3)cc2)[nH][nH]1`: 4.53. `COc1cc(C(=O)Nc2ccc(Nc3ccccc3)cc2)cc(OC)c1OC`: the IC50 was > 100 µM (inactive). As to `C/C(CC(=O)Nc1ccc(N(C)C)cc1)=N\NC(=O)c1ccccn1`, the pIC50 is 4.26. Same read-out and setting: next, `CCCC(=O)NC(=S)Nc1ccc(Cl)cn1`: 4.52. Same read-out and setting: as for `Nc1nc(-c2ccc(Br)cc2)cs1`, the figure is 4.77; as for `N/C(=N\OC(=O)CCC1CCCCC1)c1ccccn1`, 4.57. For `COc1ccc(Cl)cc1NC(=S)NCCSc1ccc(C)cc1`, the pIC50 is 4.75. Regarding `O=S(=O)(Nc1ccc(N=Nc2ccccc2)cc1)c1ccccc1`, the negative logarithm of the IC50 (pIC50) is 4.45. As to `Cn1ncc2c(Nc3cccc(Cl)c3)nc(Nc3cccc(Cl)c3)nc21`, the negative-log IC50 (pIC50) is 4.61. Still for that read-out and setting: as for `Cc1oc2cc(Br)c(O)c(Br)c2c1C(=O)c1ccccc1`, the figure is 4.59; as for `CC(CNC(=O)COc1ccccc1)OC(=O)Nc1ccc(Cl)c(Cl)c1` (stereo unspecified), 4.69. In the case of `O=C1c2cccc3cccc(c23)C(=O)N1CCN1CCN(CC(O)COc2ccc3ccccc3c2)CC1` (stereo unspecified), the pIC50 is 4.71. The same measure, in the same setting: as for `Cc1sc2ncnc(Oc3ccc(-n4ccnc4)cc3)c2c1C`, the figure is 4.34. Regarding `CN(C)CCCN1c2ccccc2CCc2ccc(Cl)cc21`, the negative logarithm of the IC50 (pIC50) is 4.42. For `Cc1ccc(C(=O)c2no[n+]([O-])c2C(=O)c2ccc(C)cc2)cc1`, the pIC50 was 4.82.

As for `O=C(CSCC(=O)OCn1nnc2ccccc2c1=O)Nc1ccc(Cl)cc1`, the pIC50 was 4.69. Regarding `CC1CCCCN1S(=O)(=O)c1ccc(NC(=O)c2ccco2)cc1` (stereo unspecified), the pIC50 was 4.64. On to `Fc1ccccc1CNc1ccc(Cl)c(Cl)c1`, for which the pIC50 was 4.57.

For the compound `N/C(=N\OC(=O)c1ccc(Cl)cc1)c1ccc(Cl)cc1`, the negative-log IC50 (pIC50) is 5.48. For the compound `Cc1nnc(SC2CC(=O)N(c3ccccc3)C2=O)s1` (stereo unspecified), the pIC50 is 4.51.

On to `COc1ccc2sc(-c3ccc(S(C)(=O)=O)cc3)c(C#CCO)c2c1`, for which the negative-log IC50 (pIC50) was 4.62. Consider `N#Cc1c(N)nc(SCC(=O)C23CC4CC(CC(C4)C2)C3)c(C#N)c1-c1ccc(Cl)cc1`, for which the pIC50 was 4.38. As to `CCOc1ccccc1NC(=O)/C=C/C(N)=O`, the negative logarithm of the IC50 (pIC50) is 4.84. As to `CC(C)(C)c1ccc(C(=O)c2cn[nH]c2-c2ccccc2O)cc1`, the pIC50 is 4.28. Same read-out and setting: next, `Cc1sc(NC(=O)c2ccco2)c(C(c2cccnc2)N2CCCC2)c1C` (stereo unspecified): 4.76; `Oc1ccccc1-c1nc(NCc2cccnc2)c2ccccc2n1`: 4.22; `COc1ccccc1C(CCNCc1ccccc1)c1ccc(OC(C)C)cc1` (stereo unspecified): 4.70. As for `CC(C)(C)c1ccc(-c2n[nH]c(=S)n2Cc2ccccc2)cc1`, the negative logarithm of the IC50 (pIC50) was 4.48. `CN1CCN(c2cc(N3CCc4ccccc4C3)c(F)cc2[N+](=O)[O-])CC1`: the pIC50 was 4.15. Same read-out and setting: next, `N/C(=N\OC(=O)CC(c1ccccc1)c1ccccc1)c1cccnc1`: 4.38. `Cc1nc2c(-c3ccccc3)cnn2c(N)c1-c1ccccc1`: the pIC50 was 4.62. Consider `Cc1cc(C)c(CSc2ncc(-c3ccc([N+](=O)[O-])cc3)[nH]2)c(C)c1`, for which the negative logarithm of the IC50 (pIC50) was 4.89.

`CC(=O)OC[C@]12CCC(C)=C[C@H]1O[C@@H]1[C@H](O)[C@@H](OC(C)=O)[C@@]2(C)[C@]12CO2`: the negative logarithm of the IC50 (pIC50) is 4.51. For `Oc1c(Cl)cc(Cl)cc1CNc1ccc(Br)cn1`, the negative-log IC50 (pIC50) is 4.48. Take `CC1=CC(=O)C=C(C)C1=NOC(=O)/C=C\c1ccccc1`: the negative logarithm of the IC50 (pIC50) was 4.37. On to `Fc1ccc(CNC(=S)Nc2cccc(C(F)(F)F)c2)cc1`, for which the pIC50 was 4.79. Turning to `CCCCN(CC)CCCNC(=O)c1cc2cc3ccc(OC)cc3nc2o1`, the negative logarithm of the IC50 (pIC50) is 4.76. As for `Cc1[nH]c(-c2ccc(F)cc2)cc1C(=O)N1CCN(c2ccccc2F)CC1`, the pIC50 was 4.45.
